Results as given in BindingDB's records for doi:10.1016/j.bmcl.2013.01.056 (Fudan University, 2013).

Target: Signal transducer and activator of transcription 3 (Homo sapiens, UniProt P40763)
Experiment: Inhibition of IL-6-induced STAT3 pathway in human HepG2 cells by luciferase reporter gene assay

Signal transducer and activator of transcription 3, sequence (P40763 whole entry): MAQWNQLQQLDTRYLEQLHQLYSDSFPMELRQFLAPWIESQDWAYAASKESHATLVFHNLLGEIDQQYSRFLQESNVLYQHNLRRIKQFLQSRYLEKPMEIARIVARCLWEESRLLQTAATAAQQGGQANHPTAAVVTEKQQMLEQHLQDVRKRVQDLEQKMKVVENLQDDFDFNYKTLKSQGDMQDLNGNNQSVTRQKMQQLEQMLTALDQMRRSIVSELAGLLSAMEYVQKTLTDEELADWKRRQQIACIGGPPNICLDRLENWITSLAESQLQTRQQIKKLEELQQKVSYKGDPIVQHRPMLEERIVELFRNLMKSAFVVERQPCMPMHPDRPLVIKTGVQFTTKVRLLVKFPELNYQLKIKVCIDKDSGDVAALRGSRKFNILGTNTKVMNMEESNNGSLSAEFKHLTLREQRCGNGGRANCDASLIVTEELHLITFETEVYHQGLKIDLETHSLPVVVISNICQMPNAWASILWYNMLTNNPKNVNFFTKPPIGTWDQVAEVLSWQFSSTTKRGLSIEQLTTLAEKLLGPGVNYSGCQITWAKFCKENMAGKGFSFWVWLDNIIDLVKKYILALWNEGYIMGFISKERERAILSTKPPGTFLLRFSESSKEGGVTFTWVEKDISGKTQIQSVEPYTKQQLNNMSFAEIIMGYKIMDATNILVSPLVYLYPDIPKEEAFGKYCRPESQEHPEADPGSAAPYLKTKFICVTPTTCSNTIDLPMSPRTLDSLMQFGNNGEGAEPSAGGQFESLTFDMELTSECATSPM

IC50 | Structure (SMILES)
24.3 µM | NS(=O)(=O)c1ccc(NCc2cc(Cl)ccc2OCc2ccccc2)cc1
59.9 µM | OCCNCc1cc(Br)ccc1OCc1ccc(Cl)cc1
26.7 µM | Oc1ccc(NCc2cc(Cl)ccc2OCc2ccc(Cl)cc2)cc1
